Test results from patent US9642845B2, “Method for alleviating side effects of retinoic acid therapy and/or improving efficacy without interfering with efficacy” (University of Kentucky Research Foundation, priority 2007, dated 2017).

Tests used:
filaggrin = test: Filaggrin expression in study subjects; format: in vivo, human
Description: (§1) To investigate this, the levels of expression of both caspase 14 and filaggrin were investigated in the groups of subjects referred to supra, (i.e., subjects who received placebo alone for one month, then placebo plus retinoic acid, and those who received placebo only for one month and then myristyl nicotinate and retinoic acid during the treatment phase.

caspase 14 = test: Caspase 14 expression in study subjects; format: in vivo, human
Description: as §1

photodamaged skin [1] = test: Clinical grading of tolerability (irritation/safety parameters); format: in vivo, human
Description: (§2) A clinical study was conducted to examined the combined use of retinoic acid therapy with myristyl nicotinate (MN), a lipophilic derivative of niacin that enhances skin barrier function, in subjects with mild to moderate facial photodamage.
(§3) The subjects were randomly assigned to one of three groups of 20 subjects each. One month prior to the initiation of retinoic acid therapy, one of the groups (group 3) began to apply to the entire face, both night and morning, a formulation containing 5% myristyl nicotinate. Groups 1 and 2 applied, in the same manner, a placebo formulation in which myristyl myristate replaced myristyl nicotinate. Upon initiation of retinoic acid therapy (baseline), group 1 (placebo/placebo+RA) continued to use the placebo formulation as above, group 2 (placebo/MN+RA) initiated use of the 5% myristyl nicotinate formulation and group 3 (MN/MN+RA) continued to use the 5% myristyl nicotinate formulation. Retinoic acid therapy involved a 0.025% concentration of the drug applied at night, immediately following application of the placebo or myristyl nicotinate containing formulations. This strength of retinoic acid was chosen for this study as the subjects had mild to moderate photodamage.
(§4) In order to assess both the tolerability and efficacy of retinoic acid therapy, subjects also were clinically graded on the right and/or left side of the face for efficacy/performance parameters and irritation/safety parameters at baseline, and weeks 2, 4, 8, and 12.
The most severe parameters of tolerability such as scaling/peeling and degree of erythema were graded on 3-point clinical scale at weeks 2, 4, 8, and 12, and mean values were determined. The frequency of less severe parameters of tolerability typical of retinoic acid therapy (including tightness/dryness, stinging, burning, and tingling) was also evaluated.

photodamaged skin [2] = test: Suprapapillary epidermal thickness of periorbital punch biopsies; format: in vivo, human; conditions: for increase in epidermal thickness: 12 weeks
Description: as §2, §3
(§5) Accordingly, periorbital biopsy samples obtained from study subjects were evaluated for stratum corneum thickness. A board certified dermatologist collected a 2-mm punch biopsy from the right or left side of the face as determined by a randomization design of 7 randomly selected subjects from each group at baseline and after 12 weeks of treatment. The punch biopsies were formalin-fixed, embedded in paraffin, cut into 5 μm cross-sections, mounted on slides, and stained with hematoxylin-eosin (H&E).
(§6) Histological images were taken of the H&E stained cross sections with an Olympus inverted stage microscope using a 10× by 0.45 Apochromat objective and a Nikon digital CCD camera. ImageJ image analysis software (NIH) was used to examine the images and perform measurements. Suprapapillary epidermal thickness (as measured from the top of the dermal papilla to the top of the granular layer) and stratum corneum thickness (as measured from the top of the granular layer to the top of the stratum corneum) were measured. For each specimen, five different sites were measured and the average was calculated.
Since long term retinoid therapy is associated with an increase in epidermal thickness, changes in epidermal thickness in each of the groups over the 12-week course of the retinoic acid therapy were also assessed. The mean values for the placebo/placebo+RA, placebo/MN+RA, and MN/MN+RA groups at the baseline were 37.9, 38.8, and 39.3 μm, respectively. […]

photodamaged skin [3] = test: Stratum corneum thickness of periorbital punch biopsies, clinical study; format: in vivo, human
Description: as §2
All subjects selected for the study were female, between the ages of 30 and 60, with a score of I to IV on the Fitzpatrick Skin Classification, mild to moderate photodamaged skin as defined by a modified Glogau Classification of I to II, and with presence of dyschromia on the face as determined by a woods light visual scan.
The subjects were randomly assigned to one of three groups of 20 subjects each. One month prior to the initiation of retinoic acid therapy, one of the groups (group 3) began to apply to the entire face, both night and morning, a formulation containing 5% myristyl nicotinate. Groups 1 and 2 applied, in the same manner, a placebo formulation in which myristyl myristate replaced myristyl nicotinate. […]
as §5, with “The punch biopsies were formalin-fixed, embedded in paraffin, cut into 5 μm cross-sections, mounted on slides, and stained with hematoxylin-eosin (H&E).” left out
as §6, with “ImageJ image analysis software (NIH) was used to examine the images and perform measurements.” left out

photodamaged skin [4] = test: Rates of transepidermal water loss (TEWL), right cheek, Dermalab; format: in vivo, human; conditions: for change from baseline in mean rates of TEWL: 12 weeks
Description: as §2, §3
Determination of rates of TEWL provides a non-invasive assessment of relative skin barrier function. […] For the TEWL measurements, the instruments required a specified temperature and humidity range for optimal function, thus subjects were required to equilibrate to ambient conditions for at least 20 min prior to measurements. Temperature was maintained between 66 and 72° F. and relative humidity maintained between 15 and 55%. A computer-linked Dermalab instrument was used to measure TEWL at two points above the skin surface on the right cheeks of study subjects and the rate of water loss was calculated. Each TEWL measurement was averaged over a one-min measurement period.

photodamaged skin [5] = conditions: 5% myristyl nicotinate for 3 months, previous studies; cited from earlier work
photodamaged skin [6] = test: Clinical grading of efficacy (dyschromia, fine lines, wrinkles, tactile roughness, temple laxity); format: in vivo, human; conditions: for grading of temple laxity vs placebo/placebo+RA: 12 weeks
Description: as §2, §3, §4
Clinical grading involved evaluation of dyschromia, fine lines, shallow wrinkles, tactile roughness, and temple laxity as a function of treatment time (at weeks 2, 4, 8, and 12).

[7] = MN/MN+RA group (prior and concurrent MN)

CC1=C(/C=C/C(C)=C/C=C/C(C)=C/C(=O)O)C(C)(C)CCC1 [retinoic acid, All-trans-retinoic acid]
change in filaggrin expression (filaggrin; subjects not treated with myristyl nicotinate (placebo plus retinoic acid)): no change
average increase in caspase 14 expression (caspase 14; placebo plus retinoic acid for 3 months): 5%
frequency of tingling (photodamaged skin [1]; retinoic acid therapy 0.025%, frequency reported in the study): 2%
decrease in mean epidermal thickness (photodamaged skin [2]; retinoic acid and placebo cream, 12 week study): approximately 5%
reduction in stratum corneum thickness (photodamaged skin [3]; placebo/placebo+RA group, 12 weeks of 0.025% retinoic acid therapy, p=0.006 vs. baseline): approximately 24%
increase in rates of TEWL (photodamaged skin [4]; placebo/placebo+RA group, 12 week period, p<0.0001): approximately 45%

CCCCCCCCCCCCCCOC(=O)c1cccnc1 [myristyl nicotinate]
average increase in filaggrin expression (filaggrin; placebo, myristyl nicotinate and retinoic acid): 13%
increase in caspase 14 expression (caspase 14; placebo, retinoic acid and myristyl nicotinate for 3 months): 24%
increase in stratum corneum thickness (photodamaged skin [5]): more than 50%
incidence of tingling (photodamaged skin [1]; [7]): zero
frequency of tightness/dryness, stinging, and burning (photodamaged skin [1]; concurrent use of myristyl nicotinate with retinoic acid therapy): decreased
grading of erythema vs placebo (photodamaged skin [1]; myristyl nicotinate treated subjects on 0.025% retinoic acid, difference not statistically significant): consistently slightly higher
frequency of tightness/dryness, stinging, and burning (photodamaged skin [1]; prior and concurrent myristyl nicotinate use with retinoic acid therapy): further reduced
mean epidermal thickness (photodamaged skin [2]; MN/MN+RA group at baseline, after one month of 5% myristyl nicotinate): 39.3 μm
increase in epidermal thickness (photodamaged skin [2]; myristyl nicotinate concurrent with retinoic acid): approximately 3%
increase in epidermal thickness (photodamaged skin [2]; myristyl nicotinate prior/concurrent with retinoic acid, p=0.0007 vs placebo/placebo+RA): approximately 10%
higher mean stratum corneum thickness compared to the mean values of the other groups (photodamaged skin [3]; MN/MN+RA group at baseline, after one month of 5% myristyl nicotinate, not significant at p<0.05): approximately 11%
change in stratum corneum thickness (photodamaged skin [3]; concurrent use of 5% myristyl nicotinate and 0.025% retinoic acid, 12 weeks): did not result in a decrease in stratum corneum thickness
grading of temple laxity vs placebo/placebo+RA (photodamaged skin [6]; MN/MN+RA group, p=0.02): statistically significant greater improvement
tactile roughness scores (photodamaged skin [6]; MN/MN+RA group, weeks 4 to 12): consistently showed greater improvement
grading of temple laxity vs placebo/placebo+RA (photodamaged skin [6]; placebo/MN+RA group, not significant at p<0.05): trend for greater improvement
change from baseline in mean rates of TEWL (photodamaged skin [4]; [7]): not statistically significant
change from baseline in mean rates of TEWL (photodamaged skin [4]; placebo/MN+RA group (concurrent MN)): not statistically significant
